# According to US10072006B2 (MUTABILIS, priority 2015, dated 2018):
# Columns and labels:
# TEM-1 = molecular target: T1, TEM-1 (Escherichia coli, UniProt P62593); experiment: β-lactamase inhibitory activity, determination of IC50 (nitrocefin hydrolysis); type: biochemical; conditions: class (A), 30 min pre-incubation
# T1 construct: made in house; host or cells: E. coli
# SHV-1 = molecular target: T2, SHV-1 (Klebsiella pneumoniae, UniProt P0AD64); experiment: as above; type: biochemical
# T2 construct: made in house; host or cells: E. coli
# T2 sequence (P0AD64 22-286): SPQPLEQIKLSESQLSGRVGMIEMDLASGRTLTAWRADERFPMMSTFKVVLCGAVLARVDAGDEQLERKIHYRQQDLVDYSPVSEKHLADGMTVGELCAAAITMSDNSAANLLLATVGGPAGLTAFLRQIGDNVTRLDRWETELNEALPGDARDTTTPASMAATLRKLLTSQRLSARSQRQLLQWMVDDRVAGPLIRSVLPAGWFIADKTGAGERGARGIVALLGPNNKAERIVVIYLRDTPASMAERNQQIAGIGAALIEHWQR
# CTX-M-15 = molecular target: T3, CTX-M-15 (Escherichia coli, UniProt Q9EXV5); experiment: as above; type: biochemical
# T3 construct: made in house; host or cells: E. coli
# T3 sequence (Q9EXV5 entry or part of it): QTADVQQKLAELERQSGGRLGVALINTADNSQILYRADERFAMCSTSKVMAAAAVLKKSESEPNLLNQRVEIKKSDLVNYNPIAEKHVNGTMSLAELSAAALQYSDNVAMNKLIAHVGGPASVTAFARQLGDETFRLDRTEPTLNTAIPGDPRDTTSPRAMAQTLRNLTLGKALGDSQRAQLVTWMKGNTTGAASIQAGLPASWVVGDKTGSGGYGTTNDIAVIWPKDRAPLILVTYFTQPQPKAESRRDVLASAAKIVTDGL
# OXA-1 = molecular target: T4, OXA-1 (Escherichia coli, UniProt P13661); experiment: as above; type: biochemical
# T4 construct: made in house; host or cells: E. coli
# T4 sequence (P13661 26-276): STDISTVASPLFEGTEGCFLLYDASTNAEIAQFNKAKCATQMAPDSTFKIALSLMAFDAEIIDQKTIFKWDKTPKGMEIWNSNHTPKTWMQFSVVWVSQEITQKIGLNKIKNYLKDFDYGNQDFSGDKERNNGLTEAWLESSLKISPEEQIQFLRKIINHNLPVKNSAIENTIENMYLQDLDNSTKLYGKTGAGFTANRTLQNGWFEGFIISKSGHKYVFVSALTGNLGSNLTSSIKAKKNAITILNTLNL
# OXA-11 = molecular target: T5, OXA-11 (Pseudomonas aeruginosa, UniProt Q06778); experiment: as above; type: biochemical
# T5 construct: made in house; host or cells: E. coli
# T5 sequence (Q06778 21-266): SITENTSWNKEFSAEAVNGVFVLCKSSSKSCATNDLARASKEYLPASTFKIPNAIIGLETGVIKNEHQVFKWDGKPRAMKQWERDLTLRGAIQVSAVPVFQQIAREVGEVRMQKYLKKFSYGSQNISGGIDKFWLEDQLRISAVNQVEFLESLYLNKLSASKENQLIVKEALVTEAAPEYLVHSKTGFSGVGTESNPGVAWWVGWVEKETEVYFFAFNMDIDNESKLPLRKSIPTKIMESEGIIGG
# OXA-48 = molecular target: T6, OXA-48 (Klebsiella pneumoniae, UniProt Q6XEC0); experiment: as above; type: biochemical
# T6 construct: made in house; host or cells: E. coli
# T6 sequence (Q6XEC0 23-265 limits assumed): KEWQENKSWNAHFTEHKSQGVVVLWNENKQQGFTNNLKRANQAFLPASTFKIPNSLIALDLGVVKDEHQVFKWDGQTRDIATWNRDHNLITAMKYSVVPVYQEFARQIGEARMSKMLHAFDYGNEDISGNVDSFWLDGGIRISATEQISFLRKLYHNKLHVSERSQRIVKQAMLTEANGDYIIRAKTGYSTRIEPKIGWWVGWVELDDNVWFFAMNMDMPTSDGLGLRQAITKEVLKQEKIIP
# [1] = test system: K. pneumoniae UFR68 (TEM-1, SHV-11, CTX-M-15, KPC-3); experiment: microbe, parasite or virus in culture; type: cell-based; conditions: for MIC: Klebsiella pneumoniae, 18 h, read-out: MIC compounds of the invention alone
# [2] = test system: E. cloacae P99 (Derepressed ampC); experiment: MIC of compounds and synergy with ceftazidime (broth microdilution); type: cell-based; conditions: strain P99 (E. cloacae); for MIC: Enterobacter cloacae, 18 h, read-out: MIC compounds of the invention alone; for MIC, combination of CAZ and compounds of the invention: MIC of ceftazidime with compound fixed at 4 μg/mL
# Protocol: (§1) Briefly, compounds alone according to the invention were prepared in DMSO and spotted (2 μL each) on sterile polystyrene plates (Corning, 3788). […] Microplates were incubated for 16-20 h at 35° C. in ambient air. The MIC of the compounds was defined as the lowest concentration of said compounds that prevented bacterial growth as read by visual inspection.
# [3] = test system: E. cloacae UFR38 (CTX-M-15, NDM-1); experiment: as above; type: cell-based; conditions: strain UFR38 (E. cloacae); for MIC: Enterobacter cloacae, 18 h, read-out: MIC compounds of the invention alone; for MIC, combination of CAZ and compounds of the invention: MIC of ceftazidime with compound fixed at 4 μg/mL
# Protocol: as §1
# [4] = test system: E. cloacae UFR70 (TEM-1, CTX-M-15, CMY-2, OXA-1, Porin loss); experiment: as above; type: cell-based; conditions: for MIC: Enterobacter cloacae, 18 h, read-out: MIC compounds of the invention alone; for MIC, combination of CAZ and compounds of the invention: MIC of ceftazidime with compound fixed at 4 μg/mL, strain UFR70 (E. cloacae)
# Protocol: as §1
# E. coli RGN238 (OXA-1) = experiment: as above; type: cell-based; conditions: strain RGN238 (E. coli); for MIC: Escherichia coli, 18 h, read-out: MIC compounds of the invention alone; for MIC, combination of CAZ and compounds of the invention: MIC of ceftazidime with compound fixed at 4 μg/mL
# Protocol: as §1
# [5] = test system: E. coli UFR32 (TEM-1, VEB-1, OXA-10); experiment: as above; type: cell-based; conditions: strain UFR32 (E. coli); for MIC: Escherichia coli, 18 h, read-out: MIC compounds of the invention alone; for MIC, combination of CAZ and compounds of the invention: MIC of ceftazidime with compound fixed at 4 μg/mL
# Protocol: as §1
# [6] = test system: K. pneumoniae 6299 (TEM-1, SHV-11, OXA-163); experiment: as above; type: cell-based; conditions: strain 6299 (K. pneumoniae); for MIC: Klebsiella pneumoniae, 18 h, read-out: MIC compounds of the invention alone; for MIC, combination of CAZ and compounds of the invention: MIC of ceftazidime with compound fixed at 4 μg/mL
# Protocol: as §1
# [7] = test system: K. pneumoniae BAA-1898 (TEM-1, SHV-11, SHV-12, KPC-2); experiment: as above; type: cell-based; conditions: strain BAA-1898 (K. pneumoniae); for MIC: Klebsiella pneumoniae, BAA1898, read-out: MIC compounds of the invention alone; for MIC, combination of CAZ and compounds of the invention: MIC of ceftazidime with compound fixed at 4 μg/mL
# Protocol: as §1
# [8] = test system: K. pneumoniae UFR77 (CMY-2); experiment: as above; type: cell-based; conditions: strain UFR77 (K. pneumoniae); for MIC: Klebsiella pneumoniae, 18 h, read-out: MIC compounds of the invention alone; for MIC, combination of CAZ and compounds of the invention: MIC of ceftazidime with compound fixed at 4 μg/mL
# Protocol: as §1
# [9] = test system: P. aeruginosa CIP105250 (OXA-15); experiment: as above; type: cell-based; conditions: strain CIP105250 (P. aeruginosa); for MIC, combination of CAZ and compounds of the invention: MIC of ceftazidime with compound fixed at 4 μg/mL; for MIC: Pseudomonas aeruginosa, 18 h, read-out: MIC compounds of the invention alone
# Protocol: as §1
# [10] = test system: P. aeruginosa CIP107051 (TEM-24); experiment: as above; type: cell-based; conditions: strain CIP107051 (P. aeruginosa); for MIC, combination of CAZ and compounds of the invention: MIC of ceftazidime with compound fixed at 4 μg/mL; for MIC: Pseudomonas aeruginosa, 18 h, read-out: MIC compounds of the invention alone
# Protocol: as §1
# [11] = test system: P. aeruginosa UFR48 (VIM-2); experiment: as above; type: cell-based; conditions: strain UFR48 (P. aeruginosa); for MIC: Pseudomonas aeruginosa, 18 h, read-out: MIC compounds of the invention alone
# Protocol: as §1
# [12] = test system: E. cloacae UFR85 (TEM-1, CTX-M-15, derepressed ampC); experiment: microbe, parasite or virus in culture; type: cell-based; conditions: for MIC: Enterobacter cloacae, 18 h, read-out: MIC compounds of the invention alone
# Protocol: […] […] Microplates were incubated for 16-20 h at 35° C. in ambient air. The MIC of the compounds was defined as the lowest concentration of said compounds that prevented bacterial growth as read by visual inspection.
# [13] = test system: K. oxytoca UFR21 (TEM-1, CTX-M-15, OXA-48); experiment: microbe, parasite or virus in culture; type: cell-based; conditions: for MIC: Klebsiella oxytoca, 18 h, read-out: MIC compounds of the invention alone
# [14] = test system: K. pneumoniae 200047 (TEM-1, SHV-32, CTX-M-15, OXA-1); experiment: microbe, parasite or virus in culture; type: cell-based; conditions: for MIC: Klebsiella pneumoniae, 18 h, read-out: MIC compounds of the invention alone
# [15] = test system: E. cloacae 260508 (TEM-1, CTX-M-15); experiment: microbe, parasite or virus in culture; type: cell-based; conditions: for MIC: Enterobacter cloacae, read-out: MIC compounds of the invention alone; for MIC, combination of CAZ and compounds of the invention: MIC of ceftazidime with compound fixed at 4 μg/mL, strain 260508 (E. cloacae)
# Protocol: as §1
# [16] = test system: E. coli 190317 (TEM-1, SHV-12, CTX-M-15, OXA-1); experiment: microbe, parasite or virus in culture; type: cell-based; conditions: for MIC: Escherichia coli, 18 h, read-out: MIC compounds of the invention alone; for MIC, combination of CAZ and compounds of the invention: MIC of ceftazidime with compound fixed at 4 μg/mL, strain 190317 (E. coli)
# Protocol: as §1
# [17] = test system: K. pneumoniae 160143 (TEM-1, SHV-1, CTX-M-15, KPC-2, OXA-1); experiment: microbe, parasite or virus in culture; type: cell-based; conditions: for MIC: Klebsiella pneumoniae, 18 h, read-out: MIC compounds of the invention alone
# Protocol: as §1
# AmpC (P99) = AmpC (P99) (Enterobacter cloacae, UniProt P05364); experiment: biochemical
# AmpC (P99), sequence (P05364 21-381): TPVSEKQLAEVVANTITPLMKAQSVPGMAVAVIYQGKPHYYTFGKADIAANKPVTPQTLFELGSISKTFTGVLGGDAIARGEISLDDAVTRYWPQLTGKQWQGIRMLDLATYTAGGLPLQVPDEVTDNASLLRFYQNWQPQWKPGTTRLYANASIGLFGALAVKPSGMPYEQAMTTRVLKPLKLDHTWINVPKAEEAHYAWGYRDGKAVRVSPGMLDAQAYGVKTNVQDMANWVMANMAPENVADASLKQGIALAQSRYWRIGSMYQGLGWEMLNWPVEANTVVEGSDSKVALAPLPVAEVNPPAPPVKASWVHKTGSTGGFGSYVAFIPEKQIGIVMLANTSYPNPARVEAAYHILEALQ
# T1 sequence (P62593 24-286 limits assumed): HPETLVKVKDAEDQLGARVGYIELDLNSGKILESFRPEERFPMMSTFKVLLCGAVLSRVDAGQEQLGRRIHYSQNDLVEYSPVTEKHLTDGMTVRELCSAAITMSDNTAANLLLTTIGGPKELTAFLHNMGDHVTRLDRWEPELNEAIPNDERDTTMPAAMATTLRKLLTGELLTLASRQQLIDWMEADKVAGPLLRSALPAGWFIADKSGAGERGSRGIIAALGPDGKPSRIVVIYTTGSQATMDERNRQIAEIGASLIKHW
smiles,measurement,setting,value
"NC[C@@H]1C(c2nccs2)=C[C@@H]2CN1C(=O)N2OS(=O)(=O)[O-].O=C(O)C(F)(F)F.[Na+] [Example 2, Sodium and 2,2,2-trifluoroacetate [(2S,5R)-2-(azaniumylmethyl)-7-oxo-3-thiazol-2-yl-1,6-diazabicyclo[3.2.1]oct-3-en-6-yl] sulfate]",IC50,TEM-1,1.7 nM
same,IC50,SHV-1,0.74 nM
same,IC50,CTX-M-15,0.76 nM
same,IC50,OXA-1,6.1 nM
same,IC50,OXA-11,6.8 nM
same,IC50,OXA-48,3.5 nM
same,MIC,[1],16 µg/mL
same,MIC,[2],≤ 0.016 µg/mL
same,"MIC, combination of CAZ and compounds of the invention",[2],<0.25 µg/mL
same,MIC,[3],32 µg/mL
same,"MIC, combination of CAZ and compounds of the invention",[3],<0.25 µg/mL
same,MIC,[4],4 µg/mL
same,"MIC, combination of CAZ and compounds of the invention",[4],<0.25 µg/mL
same,MIC,E. coli RGN238 (OXA-1),8 µg/mL
same,"MIC, combination of CAZ and compounds of the invention",E. coli RGN238 (OXA-1),≤0.125 µg/mL
same,MIC,[5],≤ 0.016 µg/mL
same,"MIC, combination of CAZ and compounds of the invention",[5],<0.25 µg/mL
same,MIC,[6],> 32 µg/mL
same,"MIC, combination of CAZ and compounds of the invention",[6],4 µg/mL
same,MIC,[7],16 µg/mL
same,"MIC, combination of CAZ and compounds of the invention",[7],≤0.125 µg/mL
same,MIC,[8],32 µg/mL
same,"MIC, combination of CAZ and compounds of the invention",[8],2 µg/mL
same,"MIC, combination of CAZ and compounds of the invention",[9],≤0.125 µg/mL
same,MIC,[9],8 µg/mL
same,"MIC, combination of CAZ and compounds of the invention",[10],<0.25 µg/mL
same,MIC,[10],2 µg/mL
same,"MIC, combination of CAZ and compounds of the invention",[11]; MIC of ceftazidime with compound fixed at 4 μg/mL,<0.25 µg/mL
same,MIC,[11],2 µg/mL
same,MIC,[12],16 µg/mL
same,MIC,[13],16 µg/mL
same,MIC,[14],16 µg/mL
same,MIC,[15],≤ 0.016 µg/mL
same,"MIC, combination of CAZ and compounds of the invention",[15],<0.25 µg/mL
same,MIC,[16],≤ 0.016 µg/mL
same,"MIC, combination of CAZ and compounds of the invention",[16],<0.25 µg/mL
same,MIC,[17],8 µg/mL
same,IC50,AmpC (P99),3.2 nM
"NC[C@@H]1C(c2ncco2)=C[C@@H]2CN1C(=O)N2OS(=O)(=O)[O-].O=C(O)C(F)(F)F.[Na+] [Example 5, Sodium and 2,2,2-trifluoroacetate [(2S,5R)-2-(azaniumylmethyl)-7-oxo-3-oxazol-2-yl-1,6-diazabicyclo[3.2.1]oct-3-en-6-yl] sulfate]",IC50,TEM-1,110 nM
same,IC50,SHV-1,64 nM
same,IC50,CTX-M-15,130 nM
same,IC50,OXA-1,370 nM
same,IC50,OXA-11,430 nM
same,IC50,OXA-48,180 nM
same,MIC,[1],32 µg/mL
same,"MIC, combination of CAZ and compounds of the invention","[1]; MIC of ceftazidime with compound fixed at 4 μg/mL, strain UFR68 (K. pneumoniae)",≤0.25 µg/mL
same,MIC,[2],≤ 0.016 µg/mL
same,"MIC, combination of CAZ and compounds of the invention",[2],<0.25 µg/mL
same,MIC,[3],≤ 0.016 µg/mL
same,"MIC, combination of CAZ and compounds of the invention",[3],<0.25 µg/mL
same,MIC,[4],8 µg/mL
same,"MIC, combination of CAZ and compounds of the invention",[4],<0.25 µg/mL
same,MIC,E. coli RGN238 (OXA-1),16 µg/mL
same,"MIC, combination of CAZ and compounds of the invention",E. coli RGN238 (OXA-1),<0.25 µg/mL
same,MIC,[5],0.063 µg/mL
same,"MIC, combination of CAZ and compounds of the invention",[5],<0.25 µg/mL
same,MIC,[6],> 32 µg/mL
same,"MIC, combination of CAZ and compounds of the invention",[6],8 µg/mL
same,MIC,[7],16 µg/mL
same,"MIC, combination of CAZ and compounds of the invention",[7],≤0.125 µg/mL
same,MIC,[8],> 32 µg/mL
same,"MIC, combination of CAZ and compounds of the invention",[8],<0.25 µg/mL
same,"MIC, combination of CAZ and compounds of the invention",[9],<0.25 µg/mL
same,MIC,[9],4 µg/mL
same,"MIC, combination of CAZ and compounds of the invention",[10],<0.25 µg/mL
same,MIC,[10],2 µg/mL
same,MIC,[11],2 µg/mL
same,MIC,[12],8 µg/mL
same,"MIC, combination of CAZ and compounds of the invention","[12]; MIC of ceftazidime with compound fixed at 4 μg/mL, strain UFR85 (E. cloacae)",<0.25 µg/mL
same,MIC,[13],32 µg/mL
same,"MIC, combination of CAZ and compounds of the invention","[13]; MIC of ceftazidime with compound fixed at 4 μg/mL, strain UFR21 (K. oxytoca)",<0.25 µg/mL
same,MIC,[14],16 µg/mL
same,"MIC, combination of CAZ and compounds of the invention","[14]; MIC of ceftazidime with compound fixed at 4 μg/mL, strain 200047 (K. pneumoniae)",<0.25 µg/mL
same,MIC,[15],8 µg/mL
same,"MIC, combination of CAZ and compounds of the invention",[15],<0.25 µg/mL
same,MIC,[16],≤ 0.016 µg/mL
same,"MIC, combination of CAZ and compounds of the invention",[16],<0.25 µg/mL
same,MIC,[17],32 µg/mL
same,"MIC, combination of CAZ and compounds of the invention","[17]; MIC of ceftazidime with compound fixed at 4 μg/mL, strain 160143 (K. pneumoniae)",<0.25 µg/mL
same,IC50,AmpC (P99),11000 nM
